These results are taken from US7531520B2, “Drug and food or drink for improving pancreatic functions” (Morinaga Milk Industry Co., Ltd., priority 2005, dated 2009).

Test [1] concerns db/db mice.
Procedure: This test was performed in order to evaluate the pancreatic endocrine gland cell function (insulin production ability) protecting action of 3-O-β-D-glucopyranosyl-4-methyl-ergost-7-en-3-ol by using db/db mice known as a model animal of pancreatic hypofunction or pancreatic tissue dysfunction.
In this test, 6-week old male db/db mice (purchased from Clea Japan, Inc.) were used. These mice were divided into groups, each consisting of 7 animals. Each test sample was dissolved in DMSO, and the concentration was adjusted to 0.1 or 1 μg/mL with physiological saline. The final DMSO concentration was adjusted to 0.2%. The model mice were orally administered with 1 mL of the test sample once a day everyday for 42 days with a sonde. The serum insulin level was measured on the 43rd day of the continuous administration by using Lbis insulin mouse ELISA kit (Shibayagi Co., Ltd).
In test [2] the test system is db/db mice. The experiment in a line: Hyperglycemia improving effect in type-II diabetes model mice (Reference Example 1). It is filed as in vivo. The settings on record: male db/db mice, oral 1 mL of 15 μg/mL once a day. The procedure: The final DMSO concentration was adjusted to 0.2%. […] Fasting blood glucose levels and random blood glucose levels were measured over time using Antisense II (Bayer-Sankyo Co., Ltd.). The fasting blood glucose levels were measured after 15 hours of fasting.
Changes over time in random blood glucose levels and fasting blood glucose levels during the test sample administration period are shown in FIGS. 3 and 4.

The subject of test [3] is db/db mice. Kind of test: Pancreatic tissue protecting action, Langerhans islets in pancreatic sections (Test Example 2). It counts as in vivo. The procedure: The final DMSO concentration was adjusted to 0.2%. […] On the 43rd day of the continuous administration, the pancreas was extracted, divided into three portions of upstream, midstream and downstream from the duodenum side, and fixed with a formalin solution, and then paraffin blocks were prepared in a conventional manner. Section slides were prepared from the paraffin blocks, and subjected to hematoxylin-eosin staining. The numbers of Langerhans islets existing on the sections of the 3 position of the pancreas, and area of Langerhans islet having the maximum area on each section were measured by using an ocular micrometer on a microscope (“ECLIPSE E600”, NIKON CORP.).

Setting [4] is: oral 1 μg once a day for 42 days, pancreatic sections.

Each structure is given as a SMILES string. Read-outs that look alike come from different tables or passages of the source.

For the compound `CC1C(O[C@@H]2O[C@H](CO)[C@@H](O)[C@H](O)[C@H]2O)CC[C@@]2(C)C1CC=C1[C@@H]3CC[C@H]([C@H](C)CC[C@H](C)C(C)C)[C@@]3(C)CC[C@@H]12` (stereo partly drawn) [Test sample, 3-O-β-D-glucopyranosyl-4-methyl-ergost-7-en-3-ol], the “Effect on serum insulin level (pancreatic function protecting effect)” value in the test on db/db mice [1] (0.1 μg/animal, 43rd day) is “any significant effect was not observed”. Further, the “Serum insulin level relative to that observed in the negative test” value in the test on db/db mice [1] (1 μg/animal, 43rd day) amounted to 216%. The “Serum insulin levels on 43rd day of administration” value in the test on db/db mice [1] (oral 0.1 μg/animal once a day for 42 days) is recorded as 2.24 ± 0.66 ng/mL. The “Serum insulin levels on 43rd day of administration” value with db/db mice [1] (oral 1 μg/animal once a day for 42 days) is reported as 4.29 ± 0.71 ng/mL. Further, the “Changes over time in random blood glucose levels” value with db/db mice [2] (FIG. 3, versus negative sample) is given as “effect of suppressing the increases in blood glucose levels was clearly observed”. Also, in the test with db/db mice [2] (after 15 hours of fasting, FIG. 4, versus negative sample), the “Changes over time in fasting blood glucose levels” value was “effect of suppressing the increases in blood glucose levels was clearly observed”. For the same compound, in the test with db/db mice [3] (1 μg, 43rd day), the “Maximum areas of Langerhans islets relative to that observed in the negative test” value was determined as 3.6 times and the “Number of Langerhans islets relative to negative sample-administered mice” value is 188%. In addition, in the test on db/db mice [3] (setting [4]), the “Maximum area of Langerhans islets on 43rd day of administration” value is reported as 160.0 ± 116.7 × 10^3 (μm^2) and the “The numbers of Langerhans islets in sections on 43rd day of administration” value came to 75.7 ± 24.7 piece.
